In the CheMixHub ionic liquid set:

Experiment: xn = mol fraction of the nth substance listed
Conditions: for electrical conductivity: 101 kPa; for viscosity: 100 kPa

CCCCCCCCCCCCCCCC[n+]1ccccc1.[Cl-] + C[C@H](N)C(=O)O + O
308.15 K
Conditions	electrical conductivity [S/m]
x2 = 0, x1 = 5.4e-07	0.000222
x2 = 0, x1 = 9e-07	0.00029
x2 = 0, x1 = 1.62e-06	0.0004
x2 = 0, x1 = 2.34e-06	0.000465
x2 = 0, x1 = 2.88e-06	0.000581
x2 = 0, x1 = 3.78e-06	0.000705
x2 = 0, x1 = 4.5e-06	0.000794
x2 = 0, x1 = 5.59e-06	0.000937
x2 = 0, x1 = 6.85e-06	0.00106
x2 = 0, x1 = 7.93e-06	0.001222
x2 = 0, x1 = 9.01e-06	0.001438
x2 = 0, x1 = 1.009e-05	0.00159
x2 = 0, x1 = 1.117e-05	0.001701
x2 = 0, x1 = 1.442e-05	0.00209
x2 = 0, x1 = 1.55e-05	0.00219
x2 = 0, x1 = 1.766e-05	0.00237
x2 = 0, x1 = 1.982e-05	0.00248
x2 = 0, x1 = 2.18e-05	0.00259
x2 = 0, x1 = 2.397e-05	0.00264
x2 = 0, x1 = 2.595e-05	0.00278
x2 = 0, x1 = 2.991e-05	0.00297
x2 = 0, x1 = 3.406e-05	0.00314
x2 = 0, x1 = 3.784e-05	0.00328
x2 = 0, x1 = 4.162e-05	0.00342
x2 = 0, x1 = 4.541e-05	0.00356
x2 = 0, x1 = 4.919e-05	0.00369
x2 = 0, x1 = 5.099e-05	0.00375
x2 = 0, x1 = 5.982e-05	0.00403
x2 = 0, x1 = 6.829e-05	0.00432
x2 = 0, x1 = 7.64e-05	0.00454
x2 = 0, x1 = 8.415e-05	0.00477
x2 = 0, x1 = 9.171e-05	0.00497
x2 = 0, x1 = 9.892e-05	0.00516
x2 = 0, x1 = 0.0001058	0.00533
x2 = 0, x1 = 0.0001124	0.0055
x2 = 0, x1 = 0.0001189	0.00565
x2 = 2.252e-05, x1 = 1.08e-06	0.000338
x2 = 2.252e-05, x1 = 2.34e-06	0.00063
x2 = 2.252e-05, x1 = 3.42e-06	0.000917
x2 = 2.252e-05, x1 = 4.69e-06	0.00119
x2 = 2.252e-05, x1 = 5.77e-06	0.00147
x2 = 2.252e-05, x1 = 6.85e-06	0.001711
x2 = 2.252e-05, x1 = 7.93e-06	0.001903
x2 = 2.252e-05, x1 = 9.19e-06	0.00208
x2 = 2.252e-05, x1 = 1.027e-05	0.00219
x2 = 2.252e-05, x1 = 1.135e-05	0.00241
x2 = 2.252e-05, x1 = 1.243e-05	0.00258
x2 = 2.252e-05, x1 = 1.352e-05	0.00273
x2 = 2.252e-05, x1 = 1.46e-05	0.00288
x2 = 2.252e-05, x1 = 1.568e-05	0.00298
x2 = 2.252e-05, x1 = 1.784e-05	0.00318
x2 = 2.252e-05, x1 = 2e-05	0.00331
x2 = 2.252e-05, x1 = 2.217e-05	0.00341
x2 = 2.252e-05, x1 = 2.433e-05	0.00351
x2 = 2.252e-05, x1 = 2.631e-05	0.00358
x2 = 2.252e-05, x1 = 3.046e-05	0.00382
x2 = 2.252e-05, x1 = 3.442e-05	0.00393
x2 = 2.252e-05, x1 = 3.838e-05	0.00411
x2 = 2.252e-05, x1 = 4.235e-05	0.00422
x2 = 2.252e-05, x1 = 4.613e-05	0.00439
x2 = 2.252e-05, x1 = 4.992e-05	0.00462
x2 = 2.252e-05, x1 = 5.172e-05	0.00468
x2 = 2.252e-05, x1 = 6.073e-05	0.00486
x2 = 2.252e-05, x1 = 6.938e-05	0.00502
x2 = 2.252e-05, x1 = 7.767e-05	0.00529
x2 = 2.252e-05, x1 = 8.542e-05	0.00541
x2 = 2.252e-05, x1 = 9.316e-05	0.00565
x2 = 2.252e-05, x1 = 0.0001004	0.00593
x2 = 2.252e-05, x1 = 0.0001074	0.00614
x2 = 2.252e-05, x1 = 0.0001142	0.00629
x2 = 2.252e-05, x1 = 0.0001207	0.00635
x2 = 0.0003926, x1 = 6.912e-05	0.0057
x2 = 0.0003926, x1 = 7.742e-05	0.00596
x2 = 0.0003927, x1 = 1.08e-06	0.000964
x2 = 0.0003927, x1 = 2.35e-06	0.00116
x2 = 0.0003927, x1 = 3.43e-06	0.00138
x2 = 0.0003927, x1 = 4.51e-06	0.001535
x2 = 0.0003927, x1 = 5.78e-06	0.00176
x2 = 0.0003927, x1 = 6.86e-06	0.001924
x2 = 0.0003927, x1 = 7.94e-06	0.00212
x2 = 0.0003927, x1 = 9.02e-06	0.00222
x2 = 0.0003927, x1 = 1.029e-05	0.0024
x2 = 0.0003927, x1 = 1.137e-05	0.00252
x2 = 0.0003927, x1 = 1.245e-05	0.00271
x2 = 0.0003927, x1 = 1.354e-05	0.00279
x2 = 0.0003927, x1 = 1.462e-05	0.00297
x2 = 0.0003927, x1 = 1.57e-05	0.00311
x2 = 0.0003927, x1 = 1.787e-05	0.0034
x2 = 0.0003927, x1 = 2.003e-05	0.0035
x2 = 0.0003927, x1 = 2.22e-05	0.00366
x2 = 0.0003927, x1 = 2.418e-05	0.00389
x2 = 0.0003927, x1 = 2.635e-05	0.00397
x2 = 0.0003927, x1 = 3.032e-05	0.00414
x2 = 0.0003927, x1 = 3.447e-05	0.00426
x2 = 0.0003927, x1 = 3.844e-05	0.00448
x2 = 0.0003927, x1 = 4.223e-05	0.00473
x2 = 0.0003927, x1 = 4.602e-05	0.00487
x2 = 0.0003927, x1 = 4.981e-05	0.00495
x2 = 0.0003927, x1 = 5.161e-05	0.00502
x2 = 0.0003927, x1 = 6.064e-05	0.00532

CCCCCCCCn1cc[n+](C)c1.[Cl-] + CN1CCCC1=O
Conditions	viscosity [mPa·s]
293.15 K, x2 = 0.3221	787
298.15 K, x2 = 0.3221	541
308.15 K, x2 = 0.7195	14.86
308.15 K, x2 = 0.9085	3.35
318.15 K, x2 = 0.21	324
318.15 K, x2 = 0.5321	43.3
318.15 K, x2 = 0.8143	5.54
323.15 K, x2 = 0.21	244
323.15 K, x2 = 0.8143	4.96
328.15 K, x2 = 0.21	185
